According to US20130252334A1, “METHOD OF USING TET-INDUCIBLE TRANSGENES” (UNIVERSITY OF ROCHESTER, priority 2010, published 2013):
Read-outs that look alike come from different tables or passages of the source.

Tested on: caspase-3 cleavage
Conditions: 2.5 μg/ml; for suppression of hypoxia-induced caspase-3 cleavage after pulse dosing: 16 hours washout, hypoxia 0.5% O2 24 hours; for caspase-3 cleavage, both dosing protocols: continuous or pulse, hypoxia
Method: Cells were exposed to 0.5% O2 for 18 hours unless otherwise specified.

| SMILES | suppression of hypoxia-induced caspase-3 cleavage after pulse dosing (12 hours pulse) | suppressive effect on caspase-3 cleavage vs washout period length (12 hours pulse, washout 0, 12, 24 hours, hypoxia 0.5% O2 18 hours) | caspase-3 cleavage, both dosing protocols | suppression of hypoxia-induced caspase-3 cleavage after pulse dosing (12 hours pulse, listed as doxycycline) |
| --- | --- | --- | --- | --- |
| C[C@H]1c2ccc(C(C)(C)C)c(O)c2C(O)=C2C(=O)[C@]3(O)C(O)=C(C(N)=O)C(=O)[C@@H](N(C)C)[C@@H]3[C@@H](O)[C@@H]21 [9-TB, 9-t-butyl doxycycline] | less impressive | augmented by shorter washout periods with a sharp decline occurring between the 12 and 24-hour chase periods | both drugs interfered with caspase-3 cleavage |  |
| CC1c2cccc(O)c2C(=O)C2=C(O)C3(O)C(=O)C(C(N)=O)=C(O)C(N(C)C)C3C(O)C21 (stereo not drawn) [Dox, 4-[Dimethylamino]-1,4,4a,5,5a,6,11,12a-octahydro-3,5,10,12,12apentahydroxy-6-methyl-1,11-dioxo-2-naphthacenecarboxamide] | ameliorated dox-mediated suppression |  | both drugs interfered with caspase-3 cleavage | did ameliorate its suppressive effects on caspase cleavage |
